From patent US9926305B2, “Salts” (Bayer Pharma Aktiengesellschaft, priority 2013, dated 2018) come the findings set out here.

Data set [1] can be described thus: storage stability after processing via suspensions. The data set is classed as physicochemical. Particulars: crystalline salt, even after processing via suspensions.
For data set [2] the following is noted: for some applications; suitability for use in formulations.

Regarding `Cn1c(=O)oc2cc(-n3cc(C(=O)[O-])c(=O)n([C@@H]4CCc5c4cccc5C(F)(F)F)c3=O)ccc21.[K+]` [potassium salt, potassium salt of 1-(3-methyl-2-oxo-2,3-dihydro-1,3-benzoxazol-6-yl)-2,4-dioxo-3-[(1R)-4-(trifluoromethyl)-2,3-dihydro-1H-inden-1-yl]-1,2,3,4-tetrahydropyrimidine-5-carboxylic acid], in data set [1], the storage stability entry is “storage-stable”. For `Cn1c(=O)oc2cc(-n3cc(C(=O)O)c(=O)n([C@@H]4CCc5c4cccc5C(F)(F)F)c3=O)ccc21` [free acid, 1-(3-Methyl-2-oxo-2,3-dihydro-1,3-benzoxazol-6-yl)-2,4-dioxo-3-[(1R)-4-(trifluoromethyl)-2,3-dihydro-1H-inden-1-yl]-1,2,3,4-tetrahydropyrimidine-5-carboxylic acid], the solubility result in data set [2] was “insufficient solubility”. For the compound `Cn1c(=O)oc2cc(-n3cc(C(=O)O)c(=O)n([C@@H]4CCc5c4cccc5C(F)(F)F)c3=O)ccc21.NCCCC[C@H](N)C(=O)O` [L-lysine salt, L-lysine salt of 1-(3-methyl-2-oxo-2,3-dihydro-1,3-benzoxazol-6-yl)-2,4-dioxo-3-[(1R)-4-(trifluoromethyl)-2,3-dihydro-1H-inden-1-yl]-1,2,3,4-tetrahydropyrimidine-5-carboxylic acid], the storage stability result in data set [1] was “storage-stable”. On to `Cn1c(=O)oc2cc(-n3cc(C(=O)[O-])c(=O)n([C@@H]4CCc5c4cccc5C(F)(F)F)c3=O)ccc21.[Na+]` [sodium salt, sodium salt of 1-(3-methyl-2-oxo-2,3-dihydro-1,3-benzoxazol-6-yl)-2,4-dioxo-3-[(1R)-4-(trifluoromethyl)-2,3-dihydro-1H-inden-1-yl]-1,2,3,4-tetrahydropyrimidine-5-carboxylic acid], for which the storage stability result in data set [1] is “storage-stable”.
